How the values were obtained:
NAMPT = NAMPT (Homo sapiens (Human), UniProt P43490); assay: Assay 1: Biochemical Inhibition Assay (NAMPT enzymatic reaction, NMN quantified by mass spectrometry); settings: read-out: Biochemical (IC50);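 also: recombinant His-tagged human NAMPT preincubated with compound 15 min, then reacted 30 min at rt with 1 µM NAM, 100 µM PRPP, 2.5 mM ATP, NMN product read by RapidFire MS, normalized to L-Cystathionine internal standard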
A2780 cells = assay: Assay 2: In-Vitro Cell Proliferation Assay (A2780 cells, SRB readout, 72 hours); format: cell-based; settings: Homo sapiens, A2780, 72 h, A2780 cells, 72 hours, SRB; read-out: Cell Proliferation (IC50);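 also: viable cells counted via sulforhodamine B staining, absorbance at 570 nm, after 72 h exposure at 37 °C, DMSO 0.1% as control, media-only background subtracted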

Sequence of NAMPT (P43490 whole entry): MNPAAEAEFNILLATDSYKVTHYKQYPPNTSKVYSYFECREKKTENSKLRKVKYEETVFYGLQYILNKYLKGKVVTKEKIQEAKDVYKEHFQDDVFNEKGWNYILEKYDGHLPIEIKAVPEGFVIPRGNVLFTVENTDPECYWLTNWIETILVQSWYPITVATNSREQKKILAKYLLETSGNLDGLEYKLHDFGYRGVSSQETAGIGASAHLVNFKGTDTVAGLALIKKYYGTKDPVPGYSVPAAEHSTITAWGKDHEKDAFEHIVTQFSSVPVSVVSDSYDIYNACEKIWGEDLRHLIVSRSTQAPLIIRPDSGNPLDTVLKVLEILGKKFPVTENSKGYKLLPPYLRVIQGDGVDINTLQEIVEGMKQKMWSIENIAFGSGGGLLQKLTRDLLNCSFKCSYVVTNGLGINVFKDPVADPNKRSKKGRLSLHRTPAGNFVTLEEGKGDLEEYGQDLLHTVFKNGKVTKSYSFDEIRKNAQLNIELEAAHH

`CCN1CCC([S+]([O-])c2ccc(CNC(=O)c3cnc4[nH]ncc4c3)cc2)CC1` (stereo not drawn) [Example 373, N-[[4-[(1-ethyl-4-piperidyl)sulfinyl]phenyl]methyl]-1H-pyrazolo[3,4-b]pyridine-5-carboxamide] was tested, and the IC50 (NAMPT) was 113 nM and the IC50 (A2780 cells) was 15.4 nM.
For `O=C(NCc1ccc(S(=O)(=O)N2CCC(O)CC2)cc1)c1cc2cnccc2[nH]1` [Example 31, 1H-Pyrrolo[3,2-c]pyridine-2-carboxylic acid 4-(4-hydroxy-piperidine-1-sulfonyl)-benzylamide], the IC50 (NAMPT) was 55 nM and the IC50 (A2780 cells) was 48.2 nM.
Molecule `NCC12CC(CN1S(=O)(=O)c1ccc(CNC(=O)c3ccc4nccn4c3)cc1)C2` [Example 328, N-[[4-[[4-(aminomethyl)-3-azabicyclo[2.1.1]hexan-3-yl]sulfonyl]phenyl]methyl) imidazo[1,2-a]pyridine-6-carboxamide] has an IC50 (NAMPT) of 1680 nM and an IC50 (A2780 cells) of 2000 nM.
`CC(=O)N1CCC(S(=O)(=O)c2ccc(CNC(=O)c3cnc4[nH]ncc4c3)cc2)C1` (stereo not drawn) [Example 348, N-[[4-(1-acetylpyrrolidin-3-yl)sulfonylphenyl]methyl]-1H-pyrazolo[3,4-b]pyridine-5-carboxamide] was tested, and the IC50 (NAMPT) was 2000 nM and the IC50 (A2780 cells) was 2000 nM.
In the case of `CC(C)CN1CCC([S+]([O-])c2ccc(CNC(=O)c3cnc4nccn4c3)cc2)CC1` (stereo not drawn) [Example 188, N-[[4-[(1-isobutyl-4-piperidyl)sulfinyl]phenyl]methyl]imidazo[1,2-a]pyrimidine-6-carboxamide], the IC50 (NAMPT) is reported as 7.7 nM and the IC50 (A2780 cells) is reported as 31.1 nM.
`O=C(NCc1ccc(S(=O)(=O)C2CCN(CC(F)(F)F)CC2)cc1)c1cnc2[nH]ncc2c1` [Example 208, N-[[4-[[1-(2,2,2-trifluoroethyl)-4-piperidyl]sulfonyl]phenyl]methyl]-1H-pyrazolo[3,4-b]pyridine-5-carboxamide] showed an IC50 (NAMPT) of 47.7 nM and an IC50 (A2780 cells) of 10.8 nM.
`CC(C)(C)OC(=O)N1CCC2(CC1)CCN(S(=O)(=O)c1ccc(CNC(=O)c3ccc4nccn4c3)cc1)CC2` [Example 121, 9-(4-{[(Imidazo[1,2-a]pyridine-6-carbonyl)-amino]-methyl}-benzenesulfonyl)-3,9-diaza-spiro[5.5]undecane-3-carboxylic acid tert-butyl ester] showed an IC50 (NAMPT) of 5.8 nM and an IC50 (A2780 cells) of 1.1 nM.
Molecule `O=C(NCc1ccc(S(=O)(=O)N2CCC3(CCCNC3)CC2)cc1)c1ccc2nccn2c1` [Example 325, N-[[4-(2,9-diazaspiro[5.5]undecan-9-ylsulfonyl)phenyl]methyl] imidazo[1,2-a]pyridine-6-carboxamide] has an IC50 (NAMPT) of 25.6 nM and an IC50 (A2780 cells) of 27.5 nM.
Molecule `CN(C)C(=O)C1CN(S(=O)(=O)c2ccc(CNC(=O)c3ccc4nccn4c3)cc2)C1` [Example 244, N-[[4-[3-(dimethylcarbamoyl)azetidin-1-yl]sulfonylphenyl]methyl] imidazo[1,2-a]pyridine-6-carboxamide] has an IC50 (NAMPT) of 14.1 nM and an IC50 (A2780 cells) of 14.4 nM.
In the case of `O=C(NCc1ccc(S(=O)(=O)C2CCN(C3COC3)CC2)cc1)c1cnc2nccn2c1` [Example 118, Imidazo[1,2-a]pyrimidine-6-carboxylic acid 4-(1-oxetan-3-yl-piperidine-4-sulfonyl)-benzylamide], the IC50 (NAMPT) is reported as 4.1 nM and the IC50 (A2780 cells) is reported as 121 nM.
`O=C(NCc1ccc(S(=O)(=O)[C@H]2CCOC2)cc1)c1cnc2[nH]ncc2c1` [Example 231, N-[[4-[(3S)-tetrahydrofuran-3-yl]sulfonylphenyl]methyl]-1H-pyrazolo[3,4-b]pyridine-5-carboxamide] gave an IC50 (NAMPT) of 315 nM and an IC50 (A2780 cells) of 977 nM.
`COCCNC1CCN(S(=O)(=O)c2ccc(CNC(=O)c3cnc4[nH]ncc4c3)cc2)CC1` [Example 39, 1H-Pyrazolo[3,4-b]pyridine-5-carboxylic acid 4-[4-(2-methoxy-ethylamino)-piperidine-1-sulfonyl]-benzylamide] gave an IC50 (NAMPT) of 83.5 nM and an IC50 (A2780 cells) of 94.7 nM.

From patent US10696692B2, “Amido-benzyl sulfone and sulfoxide derivates” (Forma TM, LLC, priority 2012, dated 2020)
